# ChEMBL document CHEMBL1141645, “Synthesis and antimycobacterial evaluation of new trans-cinnamic acid hydrazide derivatives” (2008)
# System: Mycobacterium tuberculosis
# Test: Antimicrobial activity against Mycobacterium tuberculosis ATCC […] by Almar blue assay
# Assay type: functional
row,SMILES,MIC [µg/mL]
1,O=C(/C=C/c1ccccc1)NNC(=O)c1ccccc1,50
2,COc1ccc(/C=C/C(=O)NNC(=O)c2ccccc2)cc1,12.5
3,COc1ccc(/C=C/C(=O)NNC(=O)c2ccncc2)cc1,3.12
4,O=C(/C=C/c1ccc2c(c1)OCO2)NNC(=O)c1ccccc1,25
5,O=C(/C=C/c1ccc(Cl)cc1Cl)NNC(=O)c1ccncc1,> 100
6,O=C(/C=C/c1ccc([N+](=O)[O-])cc1)NNC(=O)c1ccncc1,3.12
7,O=C(/C=C/c1ccc2c(c1)OCO2)NNC(=O)c1ccncc1,3.12
8,O=C(/C=C/c1ccc(Cl)cc1Cl)NNC(=O)c1ccccc1,> 100
9,O=C(/C=C/c1ccc([N+](=O)[O-])cc1)NNC(=O)c1ccccc1,> 100
10,O=C(/C=C/c1ccccc1)NNC(=O)c1ccncc1,3.12
11,NNC(=O)c1ccncc1 [ISONIAZID],0.2
